From patent publication US20190055517A1, “Cell Line of M2c Macrophage and Its Applications” (National Pingtung University of Science and Technology, priority 2017, published 2019)

What was measured:
murine M2 macrophage [1] = test: Macrophage phenotype by flow cytometry (CD86, CD206) after drug-induced differentiation; type: cell-based; conditions: conditions of chart 2, p<0.05, FIG. 3
Procedure: Use PBS containing 0.5% BSA to flush out bone marrow cells from murine (C57BL/6J, 8-20 weeks, Taiwan National Laboratory Animal Center) femur, then use Ficoll-Hypaque (GE healthcare, SWEDEN) to isolate monocytes.
Then, incubate 2×10^6 monocytes in 50 ng/ml M-CSF contained RPMI 1640 (10% FCS) medium under 37° c., 5% CO2 for seven days to induce M2 macrophage polarization. On the eighth day, collect 2×10^5 M2 macrophage and incubate them in RPMI 1640 (10% FCS) medium with Baicalin (50 μM, Tokyo Chemical Industry, JAPAN) for 24 hours. Baicalin will induce M2 macrophage to differentiate into M2C macrophage.
(§1) Embodiment 1 is prepared by the steps described above, isolate monocytes from murine bone marrow and use M-CSF to induce differentiation of M2 macrophage, and then use baicalin to induce M2C macrophage polarization. In comparison 1, incubate murine M2 macrophage in RPMI 1640 (10% FCS) containing LPS (lipopolysaccharide, 1 μg/ml, Sigma-Aldrich) for 2 hours. In comparison 2, incubate murine M2 macrophage in medium containing IL-4 ([…] Guidance System, Cambridge, UK) for 24 hours. The control group of M2 macrophage is incubated in RPMI 1640 (10% FCS) without any drugs. The conditions are shown below in chart 2.
After induced differentiation is complete, use flow cytometry to analyse the macrophage phenotype, in the meantime, also use real time PCR (qPCR) to observe mRNA expression level of each gene.
(§2) FIG. 2˜4 show results of macrophage phenotypes analysed by flow cytometry.

murine M2 macrophage [2] = test: Macrophage cell morphology under microscope; type: cell-based; conditions: versus M-CSF control and comparison 2, FIG. 4
Procedure: as §1, §2

Raw264.7 macrophages = test: VEGF-A protein in conditioned medium by ELISA; type: cell-based, murine; conditions: baicalin 50 μM, 48 hours, p<0.05, FIG. 13
Procedure: In this example, experiment was performed to further examine whether […] cells treated with baicalin will express VEGF-A protein. Add LPS (1 μg/ml), baicalin (50 μM) and IL-4 (10 ng/ml) respectively to medium culturing […]; Raw264.7 macrophages (ATCC, USA) and culture for 48 hours. Collect the conditioned medium and quantify VEGF-A protein by EUSA (Mouse VEGF EUSA Kit, Code: EK0541, BosterBio, CA, USA). Control group is cultured in the medium (90% DMEM+10% FBS) without any mentioned drugs. […] […] macrophage treated with baicalin can promote macrophage to secrete VEGF-A protein and the efficacy is greater than IL-4.

murine M2 macrophage [3] = test: Macrophage surface protein MERTK expression by flow cytometry; type: cell-based; conditions: versus control, LPS and IL-4 groups, p<0.05, FIG. 15
Procedure: as §1
In this example, experiment was performed to further test whether M2C treated by baicalin can express MERTK protein. Using flow cytometry to evaluate macrophage surface protein MERTK expression level in embodiment 1, comparison 1, 2, and the control group is cultured in RPMI 1640 (10% FCS) without any drugs. Result was shown in FIG. 14, after fluorescence staining, fluorescence MERTK marker binding was detected in approximately 80% of cells in every group. […] M2C cells treated with baicalin can promote macrophages to express MERTK protein, and the efficacy is greater than LPS and IL-4.

[4] = test system: M2 cell line from murine bone marrow; test: Efferocytosis of CFSE-marked apoptotic cells by macrophages (flow cytometry PE-MERTK / CFSE); type: cell-based; conditions: apoptotic cells : M2 3:2, 2 hours, p<0.05, FIG. 21
Procedure: Efficacy evaluation of apoptotic cells efferocytosis in macrophages: method of the evaluation for effectiveness of apoptotic cells efferocytosis in M2 macrophage induced differentiated by different drugs were slightly modified based on previous studies (Li et al., Yancey et al., and Jehle et al; Liu st al and Lilis at al 2008). Detail steps are described below. Use 3 μM CFSE Cell Trace (Thermofisher, USA) to mark RAW264.7 macrophage cell line for 20 minutes under 37° C., then wash with PBS. Culture cells for 24 hours, then use the 1.5 mM H2O2 following the aforementioned steps to induce RAW264.7 macrophage cell to differentiate into apoptotic cells. […] Lastly, use flow cytometry (FACS BD ARIA II, BD Bioscience, USA) to examine fluorescence performance, if both PE-MERTK and CFSE appear positive, the cell will be identified as the M2C macrophages that efferocytosed the aforementioned apoptotic cells.
Results of fluorescence expression of stained apoptotic cells, macrophages and efferocytotic macrophages detected by flow cytometry are shown in FIG. 20. Apoptotic cells induced by H2O2 (1.5 mM) and express FITC fluorescence after FITC-CFSE staining are distributed in P4 region. Differentiated M2 macrophage expresses MERTK are detected by the expressed PE fluorescence after PE-MERTK staining, which is distributed in P5 region. […]

In the case of `O=C(O)[C@H]1O[C@@H](Oc2cc3oc(-c4ccccc4)cc(=O)c3c(O)c2O)[C@H](O)[C@@H](O)[C@@H]1O` [Baicalin], the “percentage of cells expressing CD86 and CD206” value (murine M2 macrophage [1]) is reported as “lower than both comparison 1 and 2”, the morphology of macrophages (murine M2 macrophage [2]) is reported as “ellipse instead of spindle shaped” and the “VEGF-A protein detected in conditioned medium” value (Raw264.7 macrophages) is reported as “higher than control group and other groups treated with other drugs”. The “average MERTK expression level in one single cell (mean fluorescence intensity)” value (murine M2 macrophage [3]) was “two times higher”, the “mean fluorescence intensity of MERTK of single M2 macrophage” value ([4]; cells expressing CFSE) was “significantly higher than other drug treated groups and control group” and the “mean fluorescence intensity of CFSE of single M2 macrophage” value ([4]; cells expressing MERTK) was “significantly higher than other drug treated groups and control group”.
